Tests used:
OSGPR78 = target: T1, OSGPR78 (Homo sapiens, UniProt P43657, I33V); experiment: Yeast Fus1p-LacZ β-galactosidase reporter assay, OSGPR78-transformed yeast; type: cell-based; conditions: Galpha i and Galpha 12/13 family chimeras (13393, 15074, 13395)
T1 construct: expressed in transfected cells; host or cells: engineered yeast (GPA1 replaced by G-alpha chimeras, STE3 deleted; Fus1p-LacZ reporters)
T1 sequence (P43657 1-344 I33V): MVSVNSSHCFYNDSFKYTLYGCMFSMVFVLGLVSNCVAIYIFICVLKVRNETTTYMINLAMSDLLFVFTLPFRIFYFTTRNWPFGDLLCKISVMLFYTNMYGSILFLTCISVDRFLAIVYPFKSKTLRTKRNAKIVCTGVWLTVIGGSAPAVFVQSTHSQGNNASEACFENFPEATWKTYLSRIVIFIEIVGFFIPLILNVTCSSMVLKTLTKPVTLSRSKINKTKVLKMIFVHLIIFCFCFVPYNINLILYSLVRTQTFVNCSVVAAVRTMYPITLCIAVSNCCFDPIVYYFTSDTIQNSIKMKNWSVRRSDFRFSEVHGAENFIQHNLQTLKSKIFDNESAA
Excerpt: The yeast cell-based reporter assays have previously been described in the literature (e.g. see Miret J. J., et. al. (2002) J. Biol. Chem. 277:6881-6887; Campbell R. M., et. al. (1999) Bioorg Med. Chem. Lett. 9:2413-2418; King K., et. al. (1990) Science. 250:121-123); WO 99/14344; WO 00/12704; and U.S. Pat. No. 6,100,042). Briefly, yeast cells have been engineered such that the endogenous yeast G-alpha (GPA1) has been deleted and replaced with G-protein chimeras constructed using multiple techniques. Additionally the endogenous yeast alpha-cell GPCR, STE3 has been deleted to allow for a […] expression of a mammalian GPCR of choice. In the yeast, elements of the pheromone signaling transduction pathway, which are conserved in eukaryotic cells (for example, the mitogen-activated protein kinase pathway), drive the expression of Fus1. By placing β-galactosidase (LacZ) under the control of the Fus1 promoter (Fus1p), a system has been developed whereby receptor activation leads to an enzymatic read-out. Different yeast strains (e.g. FIG. 6) denote the presence of different G-alpha chimeras (see “yeast reporter assays” in Results section below for definitions).
Yeast cells are transformed by an adaptation of the Lithium acetate method described by Agatep et.al. (Agatep, R., et. al. (1998) Transformation of Saccharomyces cerevisiae by the lithium acetate/single-stranded carrier DNA/polyethylene glycol (LiAc/ss-DNA/PEG) protocol. Technical Tips Online, Trends Journals, Elsevier). Briefly, yeast cells are grown overnight on yeast tryptone plates (YT). Carrier single-stranded DNA (10 μg), 2 μg of each of two Fus1p-LacZ reporter plasmids (one with URA3 selection marker and one with TRP1), 2 μg of OSGPR114 or OSGPR78 in yeast expression vector (2p origin of replication) and a lithium acetate/polyethylene glycol/TE buffer is pipetted into an Epindorf tube. The yeast expression plasmid containing the receptor/no receptor control has a LEU2 marker. Yeast cells are inoculated into this mixture and the reaction proceeds at 30° C. for 60 minutes. The yeast cells are then heat-shocked at 42° C. for 15 minutes. The cells are then washed and spread on selection plates. The selection plates are synthetic defined yeast media minus LEU, URA and TRP (SD-LUT). After incubating at 30° C. for 2-3 days, colonies that grow on the selection plates are then tested in the LacZ assay.
In order to perform fluorometric enzyme assays for β-galactosidase, yeast cells were grown overnight in liquid SD-LUT media to an unsaturated concentration (i.e. the cells are still dividing and have not yet reached stationary phase). They are diluted in fresh media to an optimal assay concentration and 90 μL of yeast cells were added to 96-well black polystyrene plates (Costar). Compounds, dissolved in ethanol and diluted in a 1% BSA solution to 10× concentration, were added to the plates and the yeast are placed at 30° C. for 4 h. After 4 h, the substrate for the β-galactosidase is added to each well: The substrate may yield a fluorescent or calorimetric read-out upon the activity of the β-galactosidase. In these experiments, Fluorescein di(β-D-galactopyranoside) was used (FDG), a substrate for the enzyme that releases fluorescein, allowing a fluorometric read-out. 20 μL of 500 μM FDG was used. After incubation of the cells with the substrate for 30-60 mins, 20 μL of 1 M sodium carbonate is added to terminate the reaction and enhance the fluorescent signal. The plates were then read in a fluorometer at 485/535 nm. As an alternate read-out system, the yeast are also engineered with a Fus1p-HIS gene which means that activation of the receptor can also be measured through the growth of the yeast in a […] media.

Shc in HCT-8 cells = experiment: Shc activation, phospho-specific antibody; type: cell-based, human; conditions: 10 uM
Protocol: FIGS. 25A-C. LPA (10 uM) activation of Shc (A), paxillin (B) and SHP-2(C) in HCT-8 cell lysates. Phospho-specific antibodies were used to detect the activated proteins.
Many of the growth and survival signaling pathways of cancer cells have been identified. […] The protein She is an adaptor protein and the protein phosphatase SHP-2 are known to link the activation of multiple growth factor receptors to their downstream signaling pathways in cancer cells (For review see Yart et al. (2003) Current Cancer Drug Targets 3:177-192). These proteins are involved in mitogenic signaling by linking growth stimuli to the Ras-mitogen-activated protein kinase cascade and the PI3K survival pathway. […] Additionally, paxillin is a scaffold molecule intricately involved in the regulation of focal adhesions in cancer cells. It is therefore involved in the regulation of cell spreading and motility and is controlled by a multitude of signaling moieties including growth factors, and their downstream signaling molecules. Paxillin recruits these signaling components into specific cell compartments known as focal adhesions (For review, see Schaller (2001) Oncogene 20:6459-72). […] By treating HCT-8 cells with LPA (10 uM), the effect of LPA on the phosphorylation of paxillin was measured using activation state specific antibodies ([…]).

OSGPR114 = target: T2, OSGPR114 (Homo sapiens, UniProt Q9H1C0); experiment: FLIPR intracellular calcium assay, CHO-OSGPR114 cells; type: cell-based; conditions: FLIPR, read-out: EC50, intracellular calcium response
T2 construct: expressed in transfected cells; host or cells: engineered yeast (GPA1 replaced by G-alpha chimeras, STE3 deleted; Fus1p-LacZ reporters)
Protocol: For example, in one method employed herein, CHO and CHO-114 cells were seeded at a concentration of 50K cells/well in […] growth media in clear, flat-bottom 96-well black assay plates and incubated overnight at 37 C. The growth media is aspirated from the cells and a dye solution ([…]) added to each well. The dye solution consists of 2 mM probenecid, 2 mM HBSS, […] in a growth media minus antibiotics solution. The cells are loaded with the dye for 1 h at 37 C before aspiration and rinsing with wash buffer (20 mM HBSS+2 mM Probenecid). Compound plates are then prepared with 4× compound/control. 150 ul of wash buffer is added to each well. Once the FLIPR is fully calibrated, compound is added to the plate and the release of calcium measured using 0.4 exposure length and a laser set at 0.3W.

T2 sequence (Q9H1C0 whole entry): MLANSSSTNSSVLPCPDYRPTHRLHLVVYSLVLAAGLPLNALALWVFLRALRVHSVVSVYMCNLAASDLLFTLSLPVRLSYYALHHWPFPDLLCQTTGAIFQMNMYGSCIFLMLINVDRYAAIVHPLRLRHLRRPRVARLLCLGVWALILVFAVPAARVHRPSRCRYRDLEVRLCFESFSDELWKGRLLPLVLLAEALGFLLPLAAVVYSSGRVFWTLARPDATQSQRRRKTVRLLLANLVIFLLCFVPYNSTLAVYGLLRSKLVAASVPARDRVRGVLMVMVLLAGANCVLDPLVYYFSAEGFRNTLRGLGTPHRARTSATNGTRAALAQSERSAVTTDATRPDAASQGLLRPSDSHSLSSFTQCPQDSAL

Q: Which results are given for lysophosphatidic acid [LPA]?
A: response in yeast G-alpha chimera strains (OSGPR78): optimal for LPA response; phosphorylation of Shc (Shc in HCT-8 cells): induced the phosphorylation; EC50 (OSGPR114): 0.059 µM
